{"source": "paper PMC9234961", "about": "(Journal of Medicinal Chemistry, 2022)", "key": {"hERG": {"target": "hERG (Homo sapiens, UniProt Q12809)", "sequence (Q12809 whole entry)": "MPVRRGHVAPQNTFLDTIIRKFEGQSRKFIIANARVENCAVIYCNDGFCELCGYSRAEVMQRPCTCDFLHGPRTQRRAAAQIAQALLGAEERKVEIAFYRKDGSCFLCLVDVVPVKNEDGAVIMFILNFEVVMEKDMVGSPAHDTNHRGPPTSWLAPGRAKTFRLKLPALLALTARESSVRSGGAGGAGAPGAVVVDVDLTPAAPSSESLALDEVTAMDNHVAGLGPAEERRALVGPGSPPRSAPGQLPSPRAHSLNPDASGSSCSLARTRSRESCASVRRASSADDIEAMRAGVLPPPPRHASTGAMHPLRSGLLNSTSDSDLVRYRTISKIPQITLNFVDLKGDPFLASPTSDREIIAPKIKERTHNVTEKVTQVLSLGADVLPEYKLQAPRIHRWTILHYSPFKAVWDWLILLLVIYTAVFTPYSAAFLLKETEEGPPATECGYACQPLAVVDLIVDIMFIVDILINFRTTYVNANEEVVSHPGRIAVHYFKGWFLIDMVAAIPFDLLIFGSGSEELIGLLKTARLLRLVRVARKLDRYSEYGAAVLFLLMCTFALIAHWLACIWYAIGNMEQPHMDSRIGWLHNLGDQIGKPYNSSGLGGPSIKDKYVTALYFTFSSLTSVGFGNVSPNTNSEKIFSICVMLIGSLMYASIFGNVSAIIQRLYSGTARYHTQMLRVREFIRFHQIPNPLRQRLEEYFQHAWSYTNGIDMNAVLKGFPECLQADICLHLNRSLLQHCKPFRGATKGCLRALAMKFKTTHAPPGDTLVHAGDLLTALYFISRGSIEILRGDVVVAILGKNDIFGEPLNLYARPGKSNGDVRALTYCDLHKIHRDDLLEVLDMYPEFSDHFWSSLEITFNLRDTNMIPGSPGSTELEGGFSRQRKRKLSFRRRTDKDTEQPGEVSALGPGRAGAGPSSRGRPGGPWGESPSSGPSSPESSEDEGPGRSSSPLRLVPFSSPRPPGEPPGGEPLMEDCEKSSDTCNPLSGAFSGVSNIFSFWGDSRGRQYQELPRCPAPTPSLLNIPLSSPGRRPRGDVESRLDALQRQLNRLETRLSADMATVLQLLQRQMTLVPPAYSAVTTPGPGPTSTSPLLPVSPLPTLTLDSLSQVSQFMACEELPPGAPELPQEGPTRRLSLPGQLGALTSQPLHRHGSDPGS", "assay": "SAFETYScan Ion Channel, Blocker", "format": "cell-based", "description": "(§1) Supplement jm1c02175_si_002.xlsx, sheet \"SAFETYScan\" | column: RC50 (uM); Max Response"}, "NMDAR (1A/2B)": {"target": "NMDAR (1A/2B) (Homo sapiens, UniProt Q05586+Q13224)", "sequence (Q13224 27-1484, other chains not shown)": "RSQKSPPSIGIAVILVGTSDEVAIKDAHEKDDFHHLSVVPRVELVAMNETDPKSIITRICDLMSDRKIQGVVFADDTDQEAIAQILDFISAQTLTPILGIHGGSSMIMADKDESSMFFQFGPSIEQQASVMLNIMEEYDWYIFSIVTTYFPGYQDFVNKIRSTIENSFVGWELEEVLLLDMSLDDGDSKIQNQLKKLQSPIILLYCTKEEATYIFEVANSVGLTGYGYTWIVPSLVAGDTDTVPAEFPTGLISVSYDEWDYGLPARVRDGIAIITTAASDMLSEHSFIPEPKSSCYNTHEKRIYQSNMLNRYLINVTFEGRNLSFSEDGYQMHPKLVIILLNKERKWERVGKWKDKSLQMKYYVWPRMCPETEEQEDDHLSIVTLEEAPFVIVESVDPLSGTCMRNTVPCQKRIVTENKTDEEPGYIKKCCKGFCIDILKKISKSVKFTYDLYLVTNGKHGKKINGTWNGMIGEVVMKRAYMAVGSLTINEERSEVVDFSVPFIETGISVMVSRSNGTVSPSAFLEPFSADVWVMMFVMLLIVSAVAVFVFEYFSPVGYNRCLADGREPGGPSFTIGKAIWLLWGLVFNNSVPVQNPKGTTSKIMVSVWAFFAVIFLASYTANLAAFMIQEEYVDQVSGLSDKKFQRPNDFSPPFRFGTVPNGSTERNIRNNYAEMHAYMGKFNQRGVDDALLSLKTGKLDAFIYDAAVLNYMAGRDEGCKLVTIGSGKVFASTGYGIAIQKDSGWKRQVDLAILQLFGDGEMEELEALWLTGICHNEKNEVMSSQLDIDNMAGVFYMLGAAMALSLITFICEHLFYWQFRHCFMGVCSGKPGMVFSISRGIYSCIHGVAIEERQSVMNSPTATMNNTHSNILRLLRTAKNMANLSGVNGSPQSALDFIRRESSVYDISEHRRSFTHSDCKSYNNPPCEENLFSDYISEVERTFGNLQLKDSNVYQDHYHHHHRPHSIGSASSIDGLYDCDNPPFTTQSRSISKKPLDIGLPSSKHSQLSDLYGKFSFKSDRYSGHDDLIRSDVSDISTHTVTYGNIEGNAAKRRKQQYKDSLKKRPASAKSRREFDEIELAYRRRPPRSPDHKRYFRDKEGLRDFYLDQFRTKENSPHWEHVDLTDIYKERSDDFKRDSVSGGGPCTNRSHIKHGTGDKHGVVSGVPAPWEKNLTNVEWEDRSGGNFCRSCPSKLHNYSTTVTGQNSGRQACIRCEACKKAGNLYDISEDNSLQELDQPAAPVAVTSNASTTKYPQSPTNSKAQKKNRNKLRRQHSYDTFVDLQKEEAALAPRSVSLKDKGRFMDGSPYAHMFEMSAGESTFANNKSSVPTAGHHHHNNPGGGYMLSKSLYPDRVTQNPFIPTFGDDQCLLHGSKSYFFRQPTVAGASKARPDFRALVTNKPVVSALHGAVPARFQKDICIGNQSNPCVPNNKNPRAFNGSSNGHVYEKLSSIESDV", "assay": "SAFETYScan Ion Channel, Blocker", "format": "cell-based", "description": "as §1"}, "HTR3A": {"target": "T1, HTR3A (Homo sapiens, UniProt P46098)", "T1 sequence (P46098 24-478)": "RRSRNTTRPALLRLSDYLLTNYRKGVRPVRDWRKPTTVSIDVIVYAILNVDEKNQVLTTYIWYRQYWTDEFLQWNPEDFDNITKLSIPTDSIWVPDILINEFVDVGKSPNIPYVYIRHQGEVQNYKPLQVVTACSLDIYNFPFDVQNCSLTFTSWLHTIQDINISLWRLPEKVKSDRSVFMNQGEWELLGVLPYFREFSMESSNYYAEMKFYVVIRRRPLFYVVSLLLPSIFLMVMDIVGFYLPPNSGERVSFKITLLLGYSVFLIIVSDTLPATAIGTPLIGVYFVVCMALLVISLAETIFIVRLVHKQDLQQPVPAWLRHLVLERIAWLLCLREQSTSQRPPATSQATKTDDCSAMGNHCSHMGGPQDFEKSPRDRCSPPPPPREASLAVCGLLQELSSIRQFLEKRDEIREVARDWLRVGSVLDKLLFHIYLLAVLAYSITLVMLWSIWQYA", "assay": "SAFETYScan Ion Channel, Blocker", "format": "cell-based", "description": "as §1"}, "GABAA": {"target": "GABAA (Homo sapiens, UniProt P14867+P18507+P47870)", "assay": "SAFETYScan Ion Channel, Blocker", "format": "cell-based", "conditions": "read-out: Max Response", "description": "as §1"}, "NAV1.5": {"target": "NAV1.5 (Homo sapiens, UniProt Q14524)", "sequence (Q14524 whole entry)": "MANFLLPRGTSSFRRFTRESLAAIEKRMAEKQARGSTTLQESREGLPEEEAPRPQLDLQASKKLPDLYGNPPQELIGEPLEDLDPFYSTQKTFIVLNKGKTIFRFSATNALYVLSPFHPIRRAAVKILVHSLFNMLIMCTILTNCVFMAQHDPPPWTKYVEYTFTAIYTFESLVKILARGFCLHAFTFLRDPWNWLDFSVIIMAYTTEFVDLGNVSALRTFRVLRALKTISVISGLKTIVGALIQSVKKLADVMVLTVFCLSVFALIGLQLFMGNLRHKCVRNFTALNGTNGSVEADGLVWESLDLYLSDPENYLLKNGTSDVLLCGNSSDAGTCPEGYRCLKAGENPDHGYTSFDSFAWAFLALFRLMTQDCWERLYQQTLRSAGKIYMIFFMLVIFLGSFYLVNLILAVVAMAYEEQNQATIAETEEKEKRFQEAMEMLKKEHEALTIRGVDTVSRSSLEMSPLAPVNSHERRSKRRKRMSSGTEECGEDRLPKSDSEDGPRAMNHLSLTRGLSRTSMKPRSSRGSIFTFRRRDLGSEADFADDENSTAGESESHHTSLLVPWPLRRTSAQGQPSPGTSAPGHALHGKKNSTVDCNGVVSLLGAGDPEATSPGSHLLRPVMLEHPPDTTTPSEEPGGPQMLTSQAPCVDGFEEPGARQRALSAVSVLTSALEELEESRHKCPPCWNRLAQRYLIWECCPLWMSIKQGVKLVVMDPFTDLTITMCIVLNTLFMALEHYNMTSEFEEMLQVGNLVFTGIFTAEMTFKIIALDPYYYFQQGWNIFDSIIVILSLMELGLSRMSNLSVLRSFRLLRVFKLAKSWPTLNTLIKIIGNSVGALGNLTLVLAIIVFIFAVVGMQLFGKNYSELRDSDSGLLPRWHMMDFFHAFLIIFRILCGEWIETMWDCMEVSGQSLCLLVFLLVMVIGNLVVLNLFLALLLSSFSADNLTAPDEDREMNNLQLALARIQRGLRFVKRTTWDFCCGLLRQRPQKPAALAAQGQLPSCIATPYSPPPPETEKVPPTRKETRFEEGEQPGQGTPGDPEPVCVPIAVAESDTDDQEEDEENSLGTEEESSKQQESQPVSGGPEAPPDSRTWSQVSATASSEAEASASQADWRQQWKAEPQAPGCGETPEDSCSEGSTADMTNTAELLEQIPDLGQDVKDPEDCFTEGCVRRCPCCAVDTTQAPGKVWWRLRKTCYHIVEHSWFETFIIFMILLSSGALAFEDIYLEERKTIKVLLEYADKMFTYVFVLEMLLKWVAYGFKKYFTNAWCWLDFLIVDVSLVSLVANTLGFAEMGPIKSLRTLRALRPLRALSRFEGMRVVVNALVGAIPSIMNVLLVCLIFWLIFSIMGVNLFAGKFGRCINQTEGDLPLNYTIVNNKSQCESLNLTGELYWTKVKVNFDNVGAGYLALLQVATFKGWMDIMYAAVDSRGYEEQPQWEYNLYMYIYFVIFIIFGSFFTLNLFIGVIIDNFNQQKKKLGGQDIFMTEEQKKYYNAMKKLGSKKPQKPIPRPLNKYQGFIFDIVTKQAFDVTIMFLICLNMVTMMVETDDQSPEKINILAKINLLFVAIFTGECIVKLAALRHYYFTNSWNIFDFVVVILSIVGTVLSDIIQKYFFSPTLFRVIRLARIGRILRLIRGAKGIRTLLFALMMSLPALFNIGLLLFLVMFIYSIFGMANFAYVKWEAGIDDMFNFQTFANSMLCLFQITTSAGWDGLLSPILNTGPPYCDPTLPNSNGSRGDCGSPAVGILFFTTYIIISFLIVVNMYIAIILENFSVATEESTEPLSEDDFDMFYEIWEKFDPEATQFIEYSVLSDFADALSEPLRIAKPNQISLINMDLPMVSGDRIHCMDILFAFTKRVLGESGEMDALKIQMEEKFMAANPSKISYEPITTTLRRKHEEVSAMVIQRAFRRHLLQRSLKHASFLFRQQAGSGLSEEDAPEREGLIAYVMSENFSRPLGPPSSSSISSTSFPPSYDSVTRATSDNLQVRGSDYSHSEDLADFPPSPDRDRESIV", "assay": "SAFETYScan Ion Channel, Blocker", "format": "cell-based", "description": "as §1"}, "[1]": {"assay": "Microsomal clearance assay (MLM)", "format": "in vitro ADME", "conditions": "female, CD1, pH 7.4; mouse liver microsomes, 1 μM compound", "how_it_was_run": "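Compound (1 µM) was incubated at 37 °C with female CD1 mouse, female Sprague–Dawley rat or mixed-gender human liver microsomes (0.5 mg/mL protein) in 10 mmol/L phosphate, pH 7.4, with 3 mmol/L MgCl2. After 10 min preincubation, 1 mmol/L NADPH started the reaction. Samples taken up to 30 min were methanol-quenched and analysed by LC-MS.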"}, "CHRM1": {"target": "T2, CHRM1 (Homo sapiens, UniProt P11229)", "T2 sequence (P11229 1-460)": "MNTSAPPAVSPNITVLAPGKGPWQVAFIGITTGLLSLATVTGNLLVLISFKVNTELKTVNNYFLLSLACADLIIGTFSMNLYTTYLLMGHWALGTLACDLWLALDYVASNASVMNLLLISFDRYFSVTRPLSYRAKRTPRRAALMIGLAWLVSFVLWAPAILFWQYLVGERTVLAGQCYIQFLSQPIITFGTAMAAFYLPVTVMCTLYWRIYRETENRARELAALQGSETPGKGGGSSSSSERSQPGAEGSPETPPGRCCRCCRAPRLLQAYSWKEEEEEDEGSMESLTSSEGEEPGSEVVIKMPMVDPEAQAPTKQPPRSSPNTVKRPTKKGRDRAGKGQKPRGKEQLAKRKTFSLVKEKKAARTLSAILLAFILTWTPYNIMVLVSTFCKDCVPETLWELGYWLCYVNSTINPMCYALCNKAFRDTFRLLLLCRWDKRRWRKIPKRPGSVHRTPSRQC", "assay": "SAFETYScan GPCR Calcium Flux, Agonist", "format": "cell-based", "description": "as §1"}, "ADRA1A": {"target": "T3, ADRA1A (Homo sapiens, UniProt P35348)", "T3 sequence (P35348 1-466)": "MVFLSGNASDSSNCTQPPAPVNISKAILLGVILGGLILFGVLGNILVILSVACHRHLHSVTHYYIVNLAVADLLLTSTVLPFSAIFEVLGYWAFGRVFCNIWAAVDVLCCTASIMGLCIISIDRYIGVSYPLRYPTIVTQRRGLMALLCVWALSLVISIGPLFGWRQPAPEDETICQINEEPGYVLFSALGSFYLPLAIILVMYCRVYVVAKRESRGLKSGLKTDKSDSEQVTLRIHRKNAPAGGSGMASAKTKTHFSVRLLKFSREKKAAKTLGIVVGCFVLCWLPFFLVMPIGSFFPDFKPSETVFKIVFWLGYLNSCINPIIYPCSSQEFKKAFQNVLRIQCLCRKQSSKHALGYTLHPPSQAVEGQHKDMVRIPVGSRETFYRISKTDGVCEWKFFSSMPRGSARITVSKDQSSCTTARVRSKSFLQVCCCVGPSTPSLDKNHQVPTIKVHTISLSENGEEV", "assay": "SAFETYScan GPCR Calcium Flux, Agonist", "format": "cell-based", "description": "as §1"}, "CCKAR": {"target": "T4, CCKAR (Homo sapiens, UniProt P32238)", "T4 sequence (P32238 1-428)": "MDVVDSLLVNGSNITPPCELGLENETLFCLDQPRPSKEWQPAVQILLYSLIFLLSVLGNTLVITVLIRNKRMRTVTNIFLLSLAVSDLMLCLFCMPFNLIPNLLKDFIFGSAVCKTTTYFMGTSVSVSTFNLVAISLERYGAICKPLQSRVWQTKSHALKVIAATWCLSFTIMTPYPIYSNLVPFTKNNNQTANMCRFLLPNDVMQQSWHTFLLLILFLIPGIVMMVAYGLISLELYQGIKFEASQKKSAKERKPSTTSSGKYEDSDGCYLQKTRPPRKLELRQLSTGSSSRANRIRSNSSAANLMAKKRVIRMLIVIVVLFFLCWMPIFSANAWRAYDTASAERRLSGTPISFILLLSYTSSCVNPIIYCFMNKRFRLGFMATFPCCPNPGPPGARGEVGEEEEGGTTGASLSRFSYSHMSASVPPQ", "assay": "SAFETYScan GPCR Calcium Flux, Agonist", "format": "cell-based", "description": "as §1"}, "HTR2B": {"target": "T5, HTR2B (Homo sapiens, UniProt P41595)", "T5 construct": "expressed in transfected cells", "T5 sequence (P41595 whole entry)": "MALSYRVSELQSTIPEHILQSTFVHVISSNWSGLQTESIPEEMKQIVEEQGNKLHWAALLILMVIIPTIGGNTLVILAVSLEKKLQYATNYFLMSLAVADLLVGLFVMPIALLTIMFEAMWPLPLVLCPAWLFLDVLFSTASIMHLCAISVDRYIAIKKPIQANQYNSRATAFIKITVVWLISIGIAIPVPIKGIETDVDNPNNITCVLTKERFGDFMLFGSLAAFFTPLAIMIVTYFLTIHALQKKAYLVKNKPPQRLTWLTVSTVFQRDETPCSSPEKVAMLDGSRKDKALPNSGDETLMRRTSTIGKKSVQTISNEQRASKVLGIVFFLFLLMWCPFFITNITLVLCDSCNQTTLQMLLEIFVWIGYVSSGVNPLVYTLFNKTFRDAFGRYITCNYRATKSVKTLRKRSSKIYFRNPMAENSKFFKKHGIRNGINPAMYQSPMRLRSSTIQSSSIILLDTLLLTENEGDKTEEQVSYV", "assay": "SAFETYScan GPCR Calcium Flux, Agonist", "format": "cell-based", "description": "as §1"}}, "data": [{"smiles": "C[C@H]1C[C@@H](O)CN(c2ncc(Cl)c(Nc3ccc4c(c3)c3c(c(=O)n4C)OCC(F)(F)[C@H](C4CC4)N3)n2)C1", "note": "[12a CCT373566, (S)-10-((5-Chloro-2-((3R,5S)-3-hydroxy-5-methylpiperidin-1-yl)pyrimidin-4-yl)amino)-2-cyclopropyl-3,3-difluoro-7-methyl-1,2,3,4-tetrahydro-[1,4]oxazepino[2,3-c]quinolin-6(7H)-one]", "values": [{"measurement": "Emax", "setting": "hERG; human, read-out: Max Response", "result": 93, "unit": "%"}, {"measurement": "IC50", "setting": "hERG; read-out: RC50 (IC50)", "result": 1.44, "unit": "µM"}, {"measurement": "Emax", "setting": "NMDAR (1A/2B); read-out: Max Response", "result": 0, "unit": "%"}, {"measurement": "IC50", "setting": "NMDAR (1A/2B); read-out: RC50 (IC50)", "result": "> 10", "unit": "µM"}, {"measurement": "Emax", "setting": "HTR3A; read-out: Max Response", "result": 15, "unit": "%"}, {"measurement": "IC50", "setting": "HTR3A; read-out: RC50 (IC50)", "result": "> 10", "unit": "µM"}, {"measurement": "Emax", "setting": "GABAA", "result": 1.51, "unit": "%"}, {"measurement": "Emax", "setting": "NAV1.5; read-out: Max Response", "result": 1.35, "unit": "%"}, {"measurement": "IC50", "setting": "NAV1.5; read-out: RC50 (IC50)", "result": "> 10", "unit": "µM"}, {"measurement": "microsomal CLint at 0.5 h, 1 µM", "setting": "[1]", "result": 116, "unit": "µL/min/mg"}, {"measurement": "Emax", "setting": "CHRM1; read-out: Max Response", "result": 3.12, "unit": "%"}, {"measurement": "EC50", "setting": "CHRM1; read-out: RC50 (EC50)", "result": "> 10", "unit": "µM"}, {"measurement": "Emax", "setting": "ADRA1A; read-out: Max Response", "result": 5.05, "unit": "%"}, {"measurement": "EC50", "setting": "ADRA1A; read-out: RC50 (EC50)", "result": "> 10", "unit": "µM"}, {"measurement": "Emax", "setting": "CCKAR; read-out: Max Response", "result": 2.17, "unit": "%"}, {"measurement": "EC50", "setting": "CCKAR; read-out: RC50 (EC50)", "result": "> 10", "unit": "µM"}, {"measurement": "Emax", "setting": "HTR2B; read-out: Max Response", "result": 1.98, "unit": "%"}, {"measurement": "EC50", "setting": "HTR2B; read-out: RC50 (EC50)", "result": "> 10", "unit": "µM"}]}]}
